Target: T1, HDAC6 enzyme (Homo sapiens, UniProt Q9UBN7)
T1 construct: transducing full length HDAC6 gene into Sf-9 insect cells; GST; purchased SignalChem; host or cells: Sf-9 insect cells
T1 sequence (Q9UBN7 1-1215): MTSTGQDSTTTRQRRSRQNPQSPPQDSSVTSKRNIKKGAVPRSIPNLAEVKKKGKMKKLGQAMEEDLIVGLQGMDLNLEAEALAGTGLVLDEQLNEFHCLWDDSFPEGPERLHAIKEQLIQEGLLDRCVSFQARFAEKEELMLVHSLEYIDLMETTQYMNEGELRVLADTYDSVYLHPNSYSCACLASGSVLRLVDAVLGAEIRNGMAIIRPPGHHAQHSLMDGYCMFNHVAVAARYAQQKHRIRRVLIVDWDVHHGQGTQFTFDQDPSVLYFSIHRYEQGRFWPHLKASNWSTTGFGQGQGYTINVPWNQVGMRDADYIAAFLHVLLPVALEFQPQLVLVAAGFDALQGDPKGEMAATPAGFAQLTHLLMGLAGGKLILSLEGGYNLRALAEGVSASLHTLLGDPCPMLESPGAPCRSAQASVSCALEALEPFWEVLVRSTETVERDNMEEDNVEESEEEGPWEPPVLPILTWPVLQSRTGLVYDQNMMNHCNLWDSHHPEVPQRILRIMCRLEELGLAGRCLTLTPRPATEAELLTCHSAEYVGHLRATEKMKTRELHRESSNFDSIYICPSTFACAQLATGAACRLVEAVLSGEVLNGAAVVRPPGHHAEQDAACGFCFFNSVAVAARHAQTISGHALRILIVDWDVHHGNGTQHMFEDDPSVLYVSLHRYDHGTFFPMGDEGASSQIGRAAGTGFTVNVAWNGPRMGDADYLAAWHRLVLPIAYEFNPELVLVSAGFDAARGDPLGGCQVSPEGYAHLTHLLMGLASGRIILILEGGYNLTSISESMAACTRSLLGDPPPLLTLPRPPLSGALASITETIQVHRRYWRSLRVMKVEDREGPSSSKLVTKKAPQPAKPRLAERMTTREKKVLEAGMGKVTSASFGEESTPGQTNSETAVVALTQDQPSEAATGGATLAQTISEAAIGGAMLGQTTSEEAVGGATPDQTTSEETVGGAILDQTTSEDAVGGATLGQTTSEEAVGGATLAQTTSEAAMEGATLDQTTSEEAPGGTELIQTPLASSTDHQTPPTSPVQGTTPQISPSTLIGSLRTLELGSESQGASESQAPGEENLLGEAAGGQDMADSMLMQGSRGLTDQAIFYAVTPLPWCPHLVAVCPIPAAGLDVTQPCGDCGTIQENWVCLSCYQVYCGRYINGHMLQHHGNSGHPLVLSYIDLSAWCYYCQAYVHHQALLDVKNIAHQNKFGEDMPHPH
Assay: HDAC6 enzyme inhibitory activity (HDAC-Glo I/II Assay kit)
Assay type: biochemical
Conditions: 10 μM; wells without enzyme = 100% inhibition
How it was run: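 Full-length human HDAC6 (GST-purified, Sf-9 expressed) preincubated with compound 60 min at room temperature in Tris-HCl pH 7.5 buffer with MgCl2, KCl, NaCl, glutathione, Tween-20. HDAC-Glo I/II substrate-developer then added, 20 min room temperature, luminescence read. Inhibition relative to no-enzyme wells as 100%.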

Row | HDAC6 inhibitory rate (%) (10 μM) | Structure (SMILES)
1 | 100% | O=C1c2cc(-c3nnc(C(F)F)o3)ccc2CN1[C@@H]1CCN(C(=O)C2(C(F)(F)F)CC2)C[C@H]1c1ccc(F)cc1 [Example 508, 6-(5-(difluoro-methyl)-1,3,4-oxadiazol-2-yl)-2-((3R,4R)-3-(4-fluorophenyl)-1-((1-(trifluoro-methyl)cyclo-propyl)carbonyl)pipeiridin-4-yl) isoindolin-1-one]

Same assay, conditions: 10 μM; wells without enzyme = 100% inhibition; read-out: HDAC6 inhibitory rate (%) (10 μM)

Row | Structure (SMILES) | inhibition at 10 µM
2 | CC(=O)N1CC[C@@H](N2Cc3ccc(-c4nnc(C(F)F)o4)cc3C2=O)[C@H](c2ccc(F)cc2)C1 [Example 509, 2-((3R,4R)-1-acetyl-3-(4-fluorophenyl)piperidin-4-yl)-6-(5-(difluoro-methyl)-1,3,4-oxadiazol-2-yl) isoindolin-1-one] | 99%
3 | O=C(N[C@H]1[C@H](N2Cc3ccc(-c4nnc(C(F)F)o4)cc3C2=O)CCCC1(F)F)OCc1ccccc1 [Example 510, benzyl ((1S,6R)-6-(6-(5-(difluoromethyl)-1,3,4-oxadiazol-2-yl)-1-oxo-1,3-dihydro-2H-isoindol-2-yl)-2,2-difluorocyclohexyl)carbamate] | 100%
4 | CC(F)(F)C(=O)N[C@H]1CC(F)(F)CC[C@H]1N1Cc2ccc(-c3nnc(C(F)F)o3)cc2C1=O [Example 516, N-((1S,2R)-2-(6-(5-(difluoromethyl)-1,3,4-oxadiazol-2-yl)-1-oxo-1,3-dihydro-2H-isoindol-2-yl)-5,5-difluorocyclohexyl)-2,2-difluoropropanamide] | 100%
5 | Cn1cc(C2=CCN(C(=O)OC(C)(C)C)CC2)c(N2Cc3ccc(-c4nnc(C(F)F)o4)cc3C2=O)n1 [Example 518, tert-butyl 4-(3-(6-(5-(difluoro-methyl)-1,3,4-oxadiazol-2-yl)-1-oxo-1,3-dihydro-2H-isoindol-2-yl)-1-methyl-1H-pyrazol-4-yl)-3,6-dihydro-pyridine-1(2H)-carboxylate] | 99%
6 | Cn1cc(C2=CCC(NC(=O)OC(C)(C)C)CC2)c(N2Cc3ccc(-c4nnc(C(F)F)o4)cc3C2=O)n1 (stereo not shown) [Example 519, tert-butyl (4-(3-(6-(5-(difluoromethyl)-1,3,4-oxadiazol-2-yl)-1-oxo-1,3-dihydro-2H-isoindol-2-yl)-1-methyl-1H-pyrazol-4-yl)cyclohex-3-en-1-yl)carbamate] | 99%
7 | O=C1c2cc(-c3nnc(C(F)F)o3)ccc2CN1[C@@H]1CCCC[C@H]1Nc1ccccn1 [Example 521, 6-(5-(difluoromethyl)-1,3,4-oxadiazol-2-yl)-2-((1R,2R)-2-(pyridin-2-ylamino)cyclohexyl)isoindolin-1-one] | 99%
8 | Cn1cc(C2CCN(C(=O)OC(C)(C)C)CC2)c(N2Cc3ccc(-c4nnc(C(F)F)o4)cc3C2=O)n1 [Example 522, tert-butyl 4-(3-(6-(5-(difluoromethyl)-1,3,4-oxadiazol-2-yl)-1-oxo-1,3-dihydro-2H-isoindol-2-yl)-1-methyl-1H-pyrazol-4-yl)piperidine-1-carboxylate] | 99%
9 | Cn1cc(C2CCC(NC(=O)OC(C)(C)C)CC2)c(N2Cc3ccc(-c4nnc(C(F)F)o4)cc3C2=O)n1 (stereo not shown) [Example 523, tert-butyl (4-(3-(6-(5-(difluoromethyl)-1,3,4-oxadiazol-2-yl)-1-oxo-1,3-dihydro-2H-isoindol-2-yl)-1-methyl-1H-pyrazol-4-yl)cyclohexyl)carbamate] | 99%
10 | CC(C)(C)OC(=O)N1CCC(c2cc(F)ccc2N2Cc3ccc(-c4nnc(C(F)F)o4)cc3C2=O)CC1 [Example 524, tert-butyl 4-(2-(6-(5-(difluoromethyl)-1,3,4-oxadiazol-2-yl)-1-oxo-1,3-dihydro-2H-isoindol-2-yl)-5-flluorophenyl)piperidine-1-carboxylate] | 99%
11 | O=C1c2cc(-c3nnc(C(F)F)o3)ccc2CN1N1CCC(F)(F)CC1c1ccccc1 (stereo not shown) [Example 530, 6-(5-(difluoromethyl)-1,3,4-oxadiazol-2-yl)-2-(4,4-difluoro-2-phenylpiperidin-1-yl)isoindolin-1-one] | 100%
12 | O=C1c2cc(-c3nnc(C(F)F)o3)ccc2CN1c1ccc(F)cc1C1CCN(C(=O)C(F)(F)C(F)(F)F)CC1 [Example 533, 6-(5-(difluoromethyl)-1,3,4-oxadiazol-2-yl)-2-(4-fluoro-2-(1-(2,2,3,3,3-pentafluoropropanoyl)piperidin-4-yl)phenyl)isoindolin-1-one] | 98%
13 | O=C1c2cc(-c3nnc(C(F)F)o3)ccc2CN1c1ccc(F)cc1C1CCC(NC(=O)C(F)(F)C(F)(F)F)CC1 (stereo not shown) [Example 534, N-(4-(2-(6-(5-(difluoromethyl)-1,3,4-oxadiazol-2-yl)-1-oxo-1,3-dihydro-2H-isoindol-2-yl)-5-fluorophenyl)cyclohexyl)-2,2,3,3,3-pentafluoropropanamide] | 100%
14 | O=C1c2cc(-c3nnc(C(F)F)o3)ccc2CN1[C@@H]1CCCC[C@H]1n1nnc2ccccc21 [Example 536, 2-((1R,2R)-2-(1H-benzotriazol-1-yl)cyclohexyl)-6-(5-(difluoromethyl)-1,3,4-oxadiazol-2-yl)isoindolin-1-one] | 100%

Now from value to molecule:

Row | inhibition at 10 µM | Structure (SMILES)
15 | 100% | O=C1c2cc(-c3nnc(C(F)F)o3)ccc2CN1[C@@H]1CCN(C(=O)C2(F)CC2)C[C@H]1c1ccc(F)cc1 [Example 507, 6-(5-(difluoro-methyl)-1,3,4-oxadiazol-2-yl)-2-((3R,4R)-1-((1-fluorocyclo-propyl)carbonyl)-3-(4-fluoro-phenyl)piperidin-4-yl)isoindolin-1-one]
16 | 95% | N[C@H]1[C@H](N2Cc3ccc(-c4nnc(C(F)F)o4)cc3C2=O)CCCC1(F)F [Example 511, 2-((1R,2S)-2-amino-3,3-difluorocyclohexyl)-6-(5-(difluoromethyl)-1,3,4-oxadiazol-2-yl)isoindolin-1-one]
17 | 99% | O=C1c2cc(-c3nnc(C(F)F)o3)ccc2CN1[C@@H]1CCCC(F)(F)[C@H]1NC(=O)C(F)(F)C(F)(F)F [Example 513, N-((1S,6R)-6-(6-(5-(difluoromethyl)-1,3,4-oxadiazol-2-yl)-1-oxo-1,3-dihydro-2H-isoindol-2-yl)-2,2-difluorocyclohexyl)-2,2,3,3,3-pentafluoropropanamide]
18 | 99% | O=C1c2cc(-c3nnc(C(F)F)o3)ccc2CN1[C@@H]1CCC(F)(F)C[C@@H]1NC(=O)C(F)(F)C(F)(F)F [Example 515, N-((1S,2R)-2-(6-(5-(difluoro-methyl)-1,3,4-oxadiazol-2-yl)-1-oxo-1,3-dihydro-2H-isoindol-2-yl)-5,5-difluoro-cyclohexyl)-2,2,3,3,3-pentafluoro-propanamide]
19 | 99% | CC(C)(C)OC(=O)NC1CC=C(c2cc(F)ccc2N2Cc3ccc(-c4nnc(C(F)F)o4)cc3C2=O)CC1 (stereo not shown) [Example 520, tert-butyl (4-(2-(6-(5-(difluoromethyl)-1,3,4-oxadiazol-2-yl)-1-oxo-1,3-dihydro-2H-isoindol-2-yl)-5-fluorophenyl)cyclohex-3-en-1-yl)carbamate]
20 | 100% | CC(C)(C)OC(=O)NC1CCC(c2cc(F)ccc2N2Cc3ccc(-c4nnc(C(F)F)o4)cc3C2=O)CC1 (stereo not shown) [Example 525, tert-butyl (4-(2-(6-(5-(difluoromethyl)-1,3,4-oxadiazol-2-yl)-1-oxo-1,3-dihydro-2H-isoindol-2-yl)-5-fluorophenyl)cyclohexyl)carbamate]
21 | 99% | Cn1cc(C2CCC(NC(=O)C(F)(F)C(F)(F)F)CC2)c(N2Cc3ccc(-c4nnc(C(F)F)o4)cc3C2=O)n1 (stereo not shown) [Example 532, N-(4-(3-(6-(5-(difluoromethyl)-1,3,4-oxadiazol-2-yl)-1-oxo-1,3-dihydro-2H-isoindol-2-yl)-1-methyl-1H-pyrazol-4-yl)cyclohexyl)-2,2,3,3,3-pentafluoropropanamide]

Same assay, conditions: read-out: HDAC6 inhibitory rate (%) (10 μM)

Row | Structure (SMILES) | inhibition at 10 µM
22 | O=C1c2cc(-c3nnc(C(F)F)o3)ccc2CN1[C@@H]1CCCC[C@H]1N1CC(F)(F)C(F)(F)C(F)(F)C1 [Example 531, 6-(5-(difluoromethyl)-1,3,4-oxadiazol-2-yl)-2-((1R,2R)-2-(3,3,4,4,5,5-hexafluoropiperidin-1-yl)cyclohexyl)isoindolin-1-one] | 100%
